Measured values as given in patent publication US20190185479A1, “BICYCLIC NITROGENATED HETEROCYCLIC COMPOUND” (MITSUBISHI TANABE PHARMA CORPORATION, priority 2016, published 2019).

Assays:
Format in all cases: biochemical
[1] = target: T1, hPDE4D (Homo sapiens, UniProt Q08499); test: PDE4 inhibition assay (IC50), Experimental Example 3; conditions: hPDE4D; read-out: PDE inhibition assay IC50, PDE4
T1 construct: purchased SB Drug Discovery
Outline: (§1)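 Recombinant human enzymes incubated with compound and 3 nmol/L cAMP (final) in Tris-HCl pH 7.5 buffer with MgCl2, BSA, DTT, 2% DMSO final, 60 min at room temperature. Residual cAMP measured by TR-FRET (LANCE Ultra), reaction stopped with 0.5 mmol/L IBMX. IC50 from inhibition relative to no-compound (0%) and no-enzyme (100%) controls.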

[2] = target: T2, Human PDE7B (hPDE7B) (Homo sapiens, UniProt Q9NP56); test: Measurement of PDE7 inhibitory activity (Experimental Example 1; residual cAMP, LANCE Ultra cAMP TR-FRET); conditions: cAMP 3 nmol/L, room temperature 60 minutes
T2 construct: made in house; host or cells: COS-7 cells
Outline: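 hPDE7B from transfected COS-7 cells reacted with 3 nmol/L cAMP (final) and compound (2% DMSO) in 50 mmol/L Tris-HCl pH 7.5, 1 mmol/L MgCl2, 0.1% BSA, 0.5 mmol/L DTT, 60 min at room temperature. Reaction stopped with IBMX; residual cAMP measured by TR-FRET. Inhibition scaled between no-compound and no-enzyme controls.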

[3] = target: T1, hPDE4D; test: PDE7 selectivity test (Ki value), Experimental Example 2: hPDE4D; conditions: Ki from IC50 by Cheng-Prusoff, read-out: PDE inhibition constant Ki, PDE4
Procedure: (§2) hPDE1A, hPDE2A, hPDE3A, hPDE4D, hPDE5A, and hPDE8B were purchased from SB Drug Discovery. hPDE7B was isolated by the same method as [Method for preparing samples 1], and hPDE9A, hPDE10A, and hPDE11A were isolated by the same method as hPDE7B, i.e., isolated from COS-7 cells transfected with plasmids encoding each PDE. PDE6 was purified and isolated from bovine retina (bovine PDE6).
(§3) Prior to the calculation of Ki value, Km value of each PDE against cAMP or cGMP was calculated. Each PDE diluted with an assay buffer so that it would have an appropriate enzyme activity, and six or more concentrations of cAMP or cGMP were reacted at room temperature for 60 minutes. Regarding PDE using cAMP as a substrate, PDELight (trademark) HTS cAMP phosphodiesterase Kit (Lonza) was used to measure a degradation product, 5′-AMP. Also, regarding PDE using cGMP as a substrate, […] of perchloric acid was added to the mixture to stop the reaction, and the resulting mixture was subjected to LC-MS/MS to measure the residual cGMP concentration. The amount of degraded substrate in each substrate concentration was calculated, the concentration of the added substrate was plotted on the horizontal axis, the amount of degraded substrate was plotted on the vertical axis, and Km value was calculated by non-linear regression on the basis of Michaelis-Menten equation. Km value (substrate) of each PDE was hPDE1A: 4.3 (cGMP), hPDE2A: 36 (cAMP), hPDE3A: 0.11 (cAMP), hPDE4D: 0.90 (cAMP), hPDE5A: 3.9 (cGMP), bovine PDE6:9.8 (cGMP), hPDE7B: 0.015 (cAMP), hPDE8B: 0.63 (cAMP), hPDE9A: 0.0037 (cGMP), hPDE10A: 0.051 (cAMP), and hPDE11A: 1.4 (cAMP) μmol/L, respectively.
(§4) Next, PDE inhibition assay of a compound was carried out using each PDE. The PDE inhibition assay was basically carried out by the same enzyme reaction method as [Assay procedure 1], and the degraded amount of cAMP or cGMP was measured by the same method as [Assay procedure 2]. In the assay, a concentration approximated to Km value of each PDE against cAMP or cGMP was used as a substrate concentration. Meanwhile, regarding hPDE5A, hPDE8B, and hPDE9A, IMAP (trademark) FP Phosphodiesterase Evaluation Assay Kit (Molecular Devices) was used to measure the degradation of FAM-cAMP or FAM-cGMP by fluorescence depolarization technique.
(§5) Each compound was evaluated at six or more concentrations with common ratio 10. Each inhibition rate was calculated according to <Method for data calculation 1>, and then each IC50 value was calculated by sigmoid regression. The resulting IC50 value was used in the following Cheng-Prusoff equation to calculate each Ki value. Ki=IC50/(1+[S]/Km), wherein [S] represents a substrate concentration used

[4] = target: T3, hPDE8B (Homo sapiens, UniProt O95263); test: PDE8 inhibition assay (IC50), Experimental Example 3; conditions: hPDE8B; read-out: PDE inhibition assay IC50, PDE8
T3 construct: purchased SB Drug Discovery
Outline: as §1

[5] = target: T3, hPDE8B; test: PDE7 selectivity test (Ki value), Experimental Example 2: hPDE8B; conditions: Ki from IC50 by Cheng-Prusoff, read-out: PDE inhibition constant Ki, PDE8
Procedure: as §2, §3, §4, §5

[6] = target: T4, hPDE3A (Homo sapiens, UniProt Q14432); test: PDE7 selectivity test (Ki value), Experimental Example 2: hPDE3A; conditions: Ki from IC50 by Cheng-Prusoff, read-out: PDE inhibition constant Ki, PDE3
T4 construct: purchased SB Drug Discovery
Procedure: as §2, §3, §4, §5

[7] = target: T5, hPDE5A (Homo sapiens, UniProt O76074); test: PDE7 selectivity test (Ki value), Experimental Example 2: hPDE5A; conditions: Ki from IC50 by Cheng-Prusoff, read-out: PDE inhibition constant Ki, PDE5
T5 construct: purchased SB Drug Discovery
Procedure: as §2, §3, §4, §5

T1 sequence (Q08499 whole entry): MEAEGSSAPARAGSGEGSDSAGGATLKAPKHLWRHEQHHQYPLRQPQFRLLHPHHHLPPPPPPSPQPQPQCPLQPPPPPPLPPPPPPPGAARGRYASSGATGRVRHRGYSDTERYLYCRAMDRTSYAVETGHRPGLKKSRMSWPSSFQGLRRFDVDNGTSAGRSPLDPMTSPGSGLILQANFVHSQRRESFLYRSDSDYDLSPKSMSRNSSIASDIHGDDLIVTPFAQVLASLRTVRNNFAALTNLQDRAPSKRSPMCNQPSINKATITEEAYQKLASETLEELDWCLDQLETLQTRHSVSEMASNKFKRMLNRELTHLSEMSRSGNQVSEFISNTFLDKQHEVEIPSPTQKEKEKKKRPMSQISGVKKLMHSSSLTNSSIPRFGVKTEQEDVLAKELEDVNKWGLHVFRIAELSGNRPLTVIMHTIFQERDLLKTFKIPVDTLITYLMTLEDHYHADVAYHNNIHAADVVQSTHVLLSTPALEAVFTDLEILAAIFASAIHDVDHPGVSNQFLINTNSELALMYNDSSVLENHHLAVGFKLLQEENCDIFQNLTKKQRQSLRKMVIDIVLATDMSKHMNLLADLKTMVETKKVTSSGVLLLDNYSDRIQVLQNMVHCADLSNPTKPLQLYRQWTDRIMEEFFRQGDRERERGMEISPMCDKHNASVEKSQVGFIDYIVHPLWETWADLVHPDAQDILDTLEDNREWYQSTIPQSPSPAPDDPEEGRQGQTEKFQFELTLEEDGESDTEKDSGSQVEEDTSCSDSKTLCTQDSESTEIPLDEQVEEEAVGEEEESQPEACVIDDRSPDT
T3 sequence (O95263 whole entry): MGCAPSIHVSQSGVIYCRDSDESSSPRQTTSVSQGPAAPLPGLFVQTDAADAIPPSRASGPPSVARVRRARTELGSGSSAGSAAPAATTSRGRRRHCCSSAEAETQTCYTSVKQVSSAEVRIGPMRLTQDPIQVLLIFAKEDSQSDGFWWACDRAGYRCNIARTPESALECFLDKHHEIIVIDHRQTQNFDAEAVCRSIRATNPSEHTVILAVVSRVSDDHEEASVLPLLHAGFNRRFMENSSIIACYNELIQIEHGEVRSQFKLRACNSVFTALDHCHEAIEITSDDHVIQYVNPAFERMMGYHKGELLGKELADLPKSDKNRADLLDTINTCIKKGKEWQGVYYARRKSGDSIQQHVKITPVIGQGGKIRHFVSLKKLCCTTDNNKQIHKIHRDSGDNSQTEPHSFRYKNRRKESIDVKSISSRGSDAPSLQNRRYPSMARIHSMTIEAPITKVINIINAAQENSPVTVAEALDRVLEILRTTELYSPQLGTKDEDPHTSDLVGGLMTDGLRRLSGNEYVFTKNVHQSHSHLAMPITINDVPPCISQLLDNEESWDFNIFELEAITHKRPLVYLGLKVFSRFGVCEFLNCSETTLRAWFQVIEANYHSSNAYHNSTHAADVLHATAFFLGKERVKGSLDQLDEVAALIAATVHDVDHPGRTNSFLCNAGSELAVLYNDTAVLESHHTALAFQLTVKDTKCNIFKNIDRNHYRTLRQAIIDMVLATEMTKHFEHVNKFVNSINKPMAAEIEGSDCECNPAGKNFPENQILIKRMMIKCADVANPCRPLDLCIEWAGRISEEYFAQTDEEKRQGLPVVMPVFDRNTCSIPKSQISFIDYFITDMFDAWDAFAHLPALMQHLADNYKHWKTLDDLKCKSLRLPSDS
T2 sequence (Q9NP56 whole entry): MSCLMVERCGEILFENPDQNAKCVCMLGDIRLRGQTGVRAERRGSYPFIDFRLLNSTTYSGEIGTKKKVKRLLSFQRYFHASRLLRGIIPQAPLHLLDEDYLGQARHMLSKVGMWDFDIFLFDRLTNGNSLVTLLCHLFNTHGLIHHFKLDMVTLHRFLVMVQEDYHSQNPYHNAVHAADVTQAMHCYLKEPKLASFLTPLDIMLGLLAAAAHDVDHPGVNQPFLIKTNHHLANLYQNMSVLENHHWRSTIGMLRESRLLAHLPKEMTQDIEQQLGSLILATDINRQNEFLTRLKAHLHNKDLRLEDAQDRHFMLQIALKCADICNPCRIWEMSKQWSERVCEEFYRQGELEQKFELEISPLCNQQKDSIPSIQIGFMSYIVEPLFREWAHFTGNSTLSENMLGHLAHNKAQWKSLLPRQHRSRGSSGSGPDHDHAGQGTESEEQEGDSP
T4 sequence (Q14432 whole entry): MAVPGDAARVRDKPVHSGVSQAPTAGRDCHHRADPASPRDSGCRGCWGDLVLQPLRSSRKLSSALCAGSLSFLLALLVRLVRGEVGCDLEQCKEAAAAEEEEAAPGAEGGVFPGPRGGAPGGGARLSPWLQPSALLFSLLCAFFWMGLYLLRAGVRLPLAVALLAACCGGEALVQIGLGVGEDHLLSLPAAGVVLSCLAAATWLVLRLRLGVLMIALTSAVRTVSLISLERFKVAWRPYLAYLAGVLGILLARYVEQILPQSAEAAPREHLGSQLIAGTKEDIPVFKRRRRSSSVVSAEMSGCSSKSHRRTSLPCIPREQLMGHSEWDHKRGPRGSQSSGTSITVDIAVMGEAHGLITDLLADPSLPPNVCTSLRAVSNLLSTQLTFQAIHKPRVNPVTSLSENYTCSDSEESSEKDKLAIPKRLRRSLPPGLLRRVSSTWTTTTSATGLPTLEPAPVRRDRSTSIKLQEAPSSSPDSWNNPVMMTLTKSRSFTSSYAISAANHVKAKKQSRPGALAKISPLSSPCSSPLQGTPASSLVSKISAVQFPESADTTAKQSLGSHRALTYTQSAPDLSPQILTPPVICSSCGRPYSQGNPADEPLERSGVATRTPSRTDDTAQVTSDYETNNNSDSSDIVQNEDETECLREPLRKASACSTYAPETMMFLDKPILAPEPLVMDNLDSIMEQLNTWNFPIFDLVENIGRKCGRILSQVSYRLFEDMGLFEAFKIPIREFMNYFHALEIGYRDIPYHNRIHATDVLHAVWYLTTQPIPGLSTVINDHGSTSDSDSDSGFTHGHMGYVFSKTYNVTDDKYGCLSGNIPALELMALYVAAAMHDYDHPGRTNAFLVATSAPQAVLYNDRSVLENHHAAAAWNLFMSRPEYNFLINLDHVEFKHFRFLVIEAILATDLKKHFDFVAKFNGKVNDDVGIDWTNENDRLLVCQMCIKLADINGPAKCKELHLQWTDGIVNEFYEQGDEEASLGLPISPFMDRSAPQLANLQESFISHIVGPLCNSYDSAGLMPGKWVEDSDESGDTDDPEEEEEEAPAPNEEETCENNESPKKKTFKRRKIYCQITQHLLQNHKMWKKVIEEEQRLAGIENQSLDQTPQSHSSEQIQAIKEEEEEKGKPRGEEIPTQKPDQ

SMILES	IC50 [1] [µM]	IC50 [2] [µM]	Ki [3] [µM]	IC50 [4] [µM]	Ki [5] [µM]	Ki [6] [µM]	Ki [7] [µM]
Cc1nc(N)c2nnn(C3CCCCC3)c2n1 [Example 4]	0.54	0.05	0.22		0.085	> 5.2	> 9.8
Nc1nccn2c(C3CCCCC3)nnc12 [Example 141, 3-cyclohexyl[1,2,4]triazolo[4,3-a]pyrazin-8-amine]	6.22	0.01	> 4.8	1.77	1.4	> 5.2	> 9.8
C[C@@H]1CCC[C@H](c2nnc3c(N)nccn23)C1 [Example 204, 3-[(1S,3R)-3-methylcyclohexyl][1,2,4]triazolo[4,3-a]pyrazin-8-amine]	1.51	< 0.01	1.2	1.75	1.4	43	> 98

Next, values leading:

IC50 [1] [µM]	IC50 [2] [µM]	Ki [3] [µM]	IC50 [4] [µM]	Ki [5] [µM]	Ki [6] [µM]	Ki [7] [µM]	SMILES
9.2	< 0.01	4.2	5.33	5.3	> 52	> 98	CC1CCCCC1n1nnc2c(N)ncnc21 (single isomer, unassigned) [Example 191, 3-(cis-2-methylcyclohexyl)-3H-[1,2,3]triazolo[4,5-d]pyrimidin-7-amine]
7.82	0.05	4.4	0.7	0.77	> 52	> 98	Nc1ncnc2c1nnn2C1CCCCC1 [Example 3, 3-cyclohexyl-3H-[1,2,3]triazolo[4,5-d]pyrimidin-7-amine]
